In publication PMC12040169 (PLOS Biology, 2025):

Assay: in vitro
Details: human, hela cells, % viability

SMILES	viability at 28.5 h, 10 µM [%]
O=C(O)C1CSC(c2cccc(Cl)c2Cl)N1 (stereo not drawn) [CBK077526]	106
CC1CCN(c2nc3nonc3nc2Nc2ccc3c(c2)OCO3)CC1 [CBK077551]	98.8
OCCNc1ncnc2c1cnn2-c1ccccc1 [CBK077741C]	81.3
CCOC(=O)c1ccc(NS(=O)(=O)c2cc(Cl)ccc2Cl)cc1 [CBK077746]	88.4
COC(=O)C1=C(C)N=c2s/c(=C/c3ccc(OC)c(OC(C)=O)c3)c(=O)n2C1c1cccs1 (stereo not drawn) [CBK077753]	88.3
O=C(O)C1Nc2c(Cl)cc(Cl)cc2C2C=CCC12 (stereo not drawn) [CBK077855]	78.5
O=C(NCc1ccco1)c1ccccc1NS(=O)(=O)c1ccc(Br)s1 [CBK077969]	79.9
O=C(O)c1ccc(-c2ccc(/C=C3/NC(=O)N(c4ccc(Cl)cc4)C3=O)o2)cc1 [CBK077970]	103
Cc1ccc(C(C)C)c(OCc2ccc(C(=O)O)o2)c1 [CBK078089]	108
CC(=O)Nc1ccc(NCc2cc(Cl)ccc2OCc2ccc(Cl)cc2Cl)cc1 [CBK078179]	90.8
Cc1ccc(NC(=O)CN2C(=O)S/C(=C/c3ccc(-c4ccc(Cl)c(C(=O)O)c4)o3)C2=O)cc1 [CBK078256]	86.3
O=C(O)c1ccc(Cl)c(-c2ccc(/C=N/Nc3ccc([N+](=O)[O-])cc3)o2)c1 [CBK078331]	97.8
CC(C)(C)c1csc(NCc2c(O)ccc3ccccc23)n1 [CBK078381]	92.9
COc1ccc(C)cc1NS(=O)(=O)c1cc(I)c2occc2c1 [CBK078531]	72.6
CCC1CCCCN1C(=O)c1oc2ccccc2c1C (stereo not drawn) [CBK078548]	107
CCC1CCCCN1C(=O)c1cc2ccccc2o1 (stereo not drawn) [CBK078549]	80.1
COc1ccc(C(NC(=O)C2CCC(N)CC2)c2ccccc2C)cn1 (stereo not drawn) [CBK078551]	92
COc1cc([C@@]23CC[C@@H](NC(=O)Nc4cccc(C(F)(F)F)c4F)C[C@@H]2N(C)CC3)ccc1C#N [CBK078562]	106
CCCc1c(O)n[nH]c1Cc1ccc(Cl)cc1 [CBK078564]	104
CCOC(=O)c1sc(-c2ccc3c(c2)OCO3)nc1O [CBK078565]	97.2
Cc1ccc2c(c1)CC(=O)NC21CCN(CCc2noc3ccccc23)CC1 [CBK081072]	92.2
Cn1cc(CCO)c2ccccc21 [CBK081087]	109
CCCc1[nH]nc(O)c1CCc1c(F)cccc1Cl [CBK081121]	93.8

SMILES	viability at 28.5 h, 10 µM [%]
CCCc1[nH]nc(O)c1CC1CC1 [CBK081129]	110
COc1ccc([C@]23CN(C)C[C@H]2CCN(C(=O)Nc2ccc(Cl)c(F)c2)C3)cc1OC [CBK081140T]	98.3
Nc1ccc2cc(-c3ccsc3)cnc2n1 [CBK081167]	101
Nc1ccc2cc(-c3cccc(OCc4ccccc4)c3)cnc2n1 [CBK081172]	108
Nc1cc2cccnc2c(-c2cccc(C(F)(F)F)c2)n1 [CBK081177]	106
COc1ccc(C(C)C)cc1-c1nc(N)cc2cccnc12 [CBK081178]	99.6
CC(C)(C)c1ccc(-c2cc3ncccc3nc2N)cc1 [CBK081199]	80.4
COc1ccc(C(C)C)cc1-c1cc2ncccc2nc1N [CBK081202]	89.3
Nc1c(-c2ccsc2)cnc2cccnc12 [CBK081208]	87.8
COc1ccc(C(C)C)cc1-c1cnc2nc(N)ccc2c1 [CBK081216]	97.7
Nc1cc2cccnc2c(-c2ccsc2)n1 [CBK081218]	89.6
CCNC(=O)Nc1cc2cccnc2c(-c2ccsc2)n1 [CBK081226]	106
CCNC(=O)Nc1nc2cccnc2cc1-c1ccccc1 [CBK081239]	101
CC(C)C(=O)Nc1cc2cccnc2c(-c2ccc3c(c2)CCO3)n1 [CBK081260]	114
COc1ccc(C(C)C)cc1-c1cnc2nc(O)ccc2c1 [CBK081286]	94.1
CC(C)C(=O)Nc1cc2cccnc2c(-c2ccccc2)n1 [CBK081287]	92.2
Oc1nc2cccnc2cc1-c1ccc2c(c1)OCCCO2 [CBK081299]	96
Oc1ccc2cc(-c3ccc(OC(F)(F)F)cc3)cnc2n1 [CBK081300]	32.8
CC(C)(C)c1ccc(-c2cc3ncccc3nc2O)cc1 [CBK081302]	97.1
CCC1CCCCN1C(=O)c1c(Cl)cccc1Cl (stereo not drawn) [CBK081303]	99.3
COc1ccc([C@@]23CC[C@@H](NC(=O)Nc4cccc(Cl)c4)C[C@@H]2CN(C)C3)cc1OC [CBK081375T]	96.8
CCCc1[nH]nc(O)c1CCc1c(Cl)cccc1Cl [CBK081403]	112
CCC1CCCCN1C(=O)c1sc2ncccc2c1N (stereo not drawn) [CBK081410]	112

SMILES	viability at 28.5 h, 10 µM [%]
COc1ccc(CN2CCC(C(=O)NC(c3ccc(OC)nc3)c3ccccc3C)CC2)cc1 (stereo not drawn) [CBK081445T]	86.7
COc1ccc(C(NC(=O)C2CCN(Cc3ccc(OC)c(OC)c3)CC2)c2ccccc2C)cn1 (stereo not drawn) [CBK081452T]	99.7
COC(=O)[C@H](NC(=O)C1CCN(C(=O)OCc2ccccc2)CC1)c1ccccc1 [CBK081466]	88.1
COC(=O)[C@@H](NC(=O)C1CCN(C(=O)OCc2ccccc2)CC1)c1ccccc1 [CBK081468]	107
COc1ccc(C(NC(=O)N2CCN(C(=O)OCc3ccccc3)CC2)c2ccccc2C)cn1 (stereo not drawn) [CBK081469]	91.2
Oc1ccc2[nH]c3c(c2c1)CCNC31CCN(CCOc2ccccc2)C1 (stereo not drawn) [CBK081496]	85.9
CCc1ccccc1C(=O)N1CCCCC1CC (stereo not drawn) [CBK081556]	81.9
CCC1CCCCN1C(=O)c1ccc(C)c(Br)c1 (stereo not drawn) [CBK081559]	100
C[N+]1([O-])CCN(c2nccn(CCOc3cc(F)c(F)cc3F)c2=O)CC1 [CBK081593]	101
CCC1CCCCN1C(=O)c1cc(C)ccc1F (stereo not drawn) [CBK082754]	108
Cc1ccc(C(F)(F)F)cc1NS(=O)(=O)c1cc(OC2CCNCC2)c2occc2c1 [CBK082763C]	90.1
Clc1ccc(CN2CCN(c3nccnc3OCC3COc4ccccc4O3)CC2)cc1 (stereo not drawn) [CBK082786T]	101
FC(F)(F)c1ccc(CN2CCN(c3nccnc3OCC3COc4ccccc4O3)CC2)cc1 (stereo not drawn) [CBK082789T]	115
Cc1cccc(C)c1NC(=O)CN1CCN(c2nccnc2OCC2COc3ccccc3O2)CC1 (stereo not drawn) [CBK082801T]	88.9
CCN(CC)C(=O)CN1CCN(c2nccnc2OCC2COc3ccccc3O2)CC1 (stereo not drawn) [CBK082803T]	96.5
COc1ccc(CCN2CCN(c3nccnc3OCC3COc4ccccc4O3)CC2)cc1OC (stereo not drawn) [CBK082808T]	104
O=S(=O)(Nc1cc(F)cc(F)c1F)c1cc(OC2CCNCC2)c2occc2c1 [CBK082814C]	83.9
Cc1cccc(C)c1NC(=O)CN1CCN(c2nccnc2OC2CCCCC2)CC1 [CBK082835T]	103
CCOC(=O)CN1CCN(c2nccnc2OC2CCCCC2)CC1 [CBK082837T]	102
Clc1ccc(CN2CCC(Oc3nccnc3OC3CCCCC3)CC2)cc1 [CBK082856T]	101
CCOC(=O)CN1CCC(Oc2nccnc2OC2CCCCC2)CC1 [CBK082867T]	106
N#CCCCN1CCC(Oc2nccnc2OC2CCCCC2)CC1 [CBK082871T]	101
CSCCN1CCC(Oc2nccnc2OC2CCCCC2)CC1 [CBK082873T]	97

SMILES	viability at 28.5 h, 10 µM [%]
Clc1ccc(CN2CCN(c3nccnc3OCCN3CCOCC3)CC2)cc1Cl [CBK082884T]	96.7
Clc1ccc(CN2CCN(c3nccnc3OCCN3CCOCC3)CC2)cc1 [CBK082887T]	97.4
FC(F)(F)c1ccc(CN2CCN(c3nccnc3OCCN3CCOCC3)CC2)cc1 [CBK082890T]	90.8
c1ccc(-c2ccccc2CN2CCN(c3nccnc3OCCN3CCOCC3)CC2)cc1 [CBK082893T]	90.7
CCOC(=O)CN1CCN(c2nccnc2OCCN2CCOCC2)CC1 [CBK082897]	93.9
c1cnc(N2CCN(CCN3CCOCC3)CC2)c(OCCN2CCOCC2)n1 [CBK082899]	105
c1ccc2cc(CCN3CCN(c4nccnc4OCCN4CCOCC4)CC3)ccc2c1 [CBK082911T]	87.6
COc1ccc(CN2CCC(Oc3nccnc3OCCN3CCOCC3)CC2)cc1 [CBK082922T]	90.8
c1ccc(-c2ccccc2CN2CCC(Oc3nccnc3OCCN3CCOCC3)CC2)cc1 [CBK082924T]	102
Fc1ccc(CCN2CCC(Oc3nccnc3OCCN3CCOCC3)CC2)cc1 [CBK082937T]	88.3
c1cnc(OC2CCN(CC3CCCCC3)CC2)c(OCCN2CCOCC2)n1 [CBK082941T]	87.3
Cc1cc(COc2nccnc2OC2CCN(Cc3ccccc3F)CC2)no1 [CBK082948T]	109
COc1ccc(CN2CCC(Oc3nccnc3OCc3cc(C)on3)CC2)cc1 [CBK082953T]	93.7
CCN(CC)C(=O)CN1CCC(Oc2nccnc2OCc2cc(C)on2)CC1 [CBK082959T]	102
CCOC(=O)CN1CCC(Oc2nccnc2OCc2cc(C)on2)CC1 [CBK082960T]	105
Cc1cc(COc2nccnc2OC2CCN(CCN3CCOCC3)CC2)no1 [CBK082961T]	103
CSCCN1CCC(Oc2nccnc2OCc2cc(C)on2)CC1 [CBK082966T]	89.7
Fc1ccccc1CN1CCC(Oc2nccnc2OCC2COc3ccccc3O2)CC1 (stereo not drawn) [CBK082979T]	101
NC(=O)CN1CCC(Oc2nccnc2OCC2COc3ccccc3O2)CC1 (stereo not drawn) [CBK082987T]	92.1
CCOC(=O)CN1CCC(Oc2nccnc2OCC2COc3ccccc3O2)CC1 (stereo not drawn) [CBK082989T]	96.6
N#CCCCN1CCC(Oc2nccnc2OCC2COc3ccccc3O2)CC1 (stereo not drawn) [CBK082994T]	86.8
